Values quoted from earlier work in patent publication US20230405068A1, “RADIATION-INDUCED FIBROSIS TREATMENT” (Handelsselskabet af 20.10.2020 ApS, priority 2020, published 2023).
Where two headings read alike, the source gives them in different places.

Tests used:
[1] = tested on: radiation-induced dermatitis; conditions: rats
[2] = tested on: radiation-induced dermatitis; conditions: mice; applied topically
[3] = tested on: radiation-induced injury
[4] = tested on: radiation-induced skin fibrosis; conditions: intramuscular injection; pigs
[5] = tested on: radiation-induced skin fibrosis; conditions: intramuscular injection; humans

Row | Compound | mitochondrial lipid peroxidation [3] | protection from radiation-induced injury [3] | also measured
1 | CC(=O)N[C@@H](CS)C(=O)O [N-acetylcysteine] |  |  | protection from radiation-induced dermatitis [1]: significantly protects
2 | CC1(C)CC[C@]2(NC(=O)C(C)(F)F)CC[C@]3(C)[C@H](C(=O)C=C4[C@@]5(C)C=C(C#N)C(=O)C(C)(C)[C@@H]5CC[C@]43C)[C@@H]2C1 [RTA 408, omaveloxolone] |  |  | protection from radiation-induced dermatitis [2]: allegedly protecting
3 | NCCCNCCSP(=O)(O)O [amifostine] | limit mitochondrial lipid peroxidation | protect from radiation-induced injury | 
4 | N[C@@H](CCC(=O)N[C@@H](CS)C(=O)NCC(=O)O)C(=O)O [glutathione] | limit mitochondrial lipid peroxidation | protect from radiation-induced injury | 
5 | Sod1 (Cu—Zn) protein: Sod1 (Cu—Zn) protein given by intramuscular injection |  |  | protection from radiation-induced skin fibrosis [4]: protected; protection from radiation-induced skin fibrosis [5]: protected
